The source of these data is patent publication US12421225B2, “Heteroaromatic amide derivative and medicament containing the same” (KAKEN PHARMACEUTICAL CO., LTD., priority 2018, dated 2025).

The first assay deals with human Nav1.7 (Homo sapiens (Human), UniProt Q15858). Description: Human Nav1.7 inhibitory activity evaluation (automated patch clamp QPatch16X, HEK293A cells stably expressing human Nav1.7 and human Navβ1). Conditions: HEK293A cells stably expressing human Nav1.7 and human Navβ1, automated patch clamp QPatch16X. The class given is cell-based. The protocol: Test Example 1: Human Nav1.7 Inhibitory Activity Evaluation
human Nav1.7, sequence (Q15858 whole entry): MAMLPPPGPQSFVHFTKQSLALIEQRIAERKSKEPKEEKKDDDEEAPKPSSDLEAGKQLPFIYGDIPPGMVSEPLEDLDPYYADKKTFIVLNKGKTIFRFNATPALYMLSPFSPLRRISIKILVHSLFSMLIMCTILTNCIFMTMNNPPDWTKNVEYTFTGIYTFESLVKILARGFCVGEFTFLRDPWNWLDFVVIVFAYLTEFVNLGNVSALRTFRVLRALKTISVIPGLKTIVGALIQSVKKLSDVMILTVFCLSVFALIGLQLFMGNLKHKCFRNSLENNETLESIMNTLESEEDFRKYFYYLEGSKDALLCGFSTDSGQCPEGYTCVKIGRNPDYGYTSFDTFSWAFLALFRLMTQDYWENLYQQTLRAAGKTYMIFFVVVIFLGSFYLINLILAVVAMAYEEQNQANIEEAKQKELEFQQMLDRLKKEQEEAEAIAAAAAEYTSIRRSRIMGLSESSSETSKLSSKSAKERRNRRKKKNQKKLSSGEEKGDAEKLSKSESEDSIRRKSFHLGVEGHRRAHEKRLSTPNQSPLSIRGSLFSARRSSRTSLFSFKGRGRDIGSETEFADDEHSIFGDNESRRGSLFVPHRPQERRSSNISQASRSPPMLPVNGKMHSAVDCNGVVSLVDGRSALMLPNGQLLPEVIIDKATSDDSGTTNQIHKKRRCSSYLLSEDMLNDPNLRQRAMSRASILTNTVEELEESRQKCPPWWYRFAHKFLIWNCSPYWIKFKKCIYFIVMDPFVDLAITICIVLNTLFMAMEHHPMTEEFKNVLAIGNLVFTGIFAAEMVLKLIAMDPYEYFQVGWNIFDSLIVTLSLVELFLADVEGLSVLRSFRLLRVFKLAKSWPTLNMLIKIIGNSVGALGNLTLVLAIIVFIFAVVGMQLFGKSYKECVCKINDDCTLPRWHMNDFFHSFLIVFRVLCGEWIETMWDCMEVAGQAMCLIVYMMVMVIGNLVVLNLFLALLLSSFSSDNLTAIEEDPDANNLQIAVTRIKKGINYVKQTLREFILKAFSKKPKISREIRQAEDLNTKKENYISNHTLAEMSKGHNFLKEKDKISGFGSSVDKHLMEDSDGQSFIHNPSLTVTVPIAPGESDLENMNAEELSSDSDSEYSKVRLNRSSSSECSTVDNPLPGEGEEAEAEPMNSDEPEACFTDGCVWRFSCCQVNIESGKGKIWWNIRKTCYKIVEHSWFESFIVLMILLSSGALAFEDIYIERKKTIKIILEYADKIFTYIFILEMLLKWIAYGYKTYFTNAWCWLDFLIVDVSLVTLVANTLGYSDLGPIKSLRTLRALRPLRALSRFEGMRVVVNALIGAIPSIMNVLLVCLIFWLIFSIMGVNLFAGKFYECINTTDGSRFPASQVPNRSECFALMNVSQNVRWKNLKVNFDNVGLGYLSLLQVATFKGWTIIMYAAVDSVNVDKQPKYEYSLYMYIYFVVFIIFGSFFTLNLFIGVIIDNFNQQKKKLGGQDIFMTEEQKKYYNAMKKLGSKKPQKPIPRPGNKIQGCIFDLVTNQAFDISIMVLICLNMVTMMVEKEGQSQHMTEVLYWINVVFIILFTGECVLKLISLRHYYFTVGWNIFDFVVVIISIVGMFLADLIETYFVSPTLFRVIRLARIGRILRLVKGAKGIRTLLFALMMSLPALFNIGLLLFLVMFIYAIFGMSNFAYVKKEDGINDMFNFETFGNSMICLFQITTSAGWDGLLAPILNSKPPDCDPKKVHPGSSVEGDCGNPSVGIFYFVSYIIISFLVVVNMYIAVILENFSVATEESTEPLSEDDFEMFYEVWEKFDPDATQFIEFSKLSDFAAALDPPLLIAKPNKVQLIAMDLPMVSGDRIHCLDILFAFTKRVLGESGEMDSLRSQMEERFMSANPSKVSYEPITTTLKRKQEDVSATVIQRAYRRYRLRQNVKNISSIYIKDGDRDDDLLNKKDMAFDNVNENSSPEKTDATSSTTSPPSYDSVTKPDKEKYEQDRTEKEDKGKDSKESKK
human Nav1.7, sequence (Q07699 19-218 partner): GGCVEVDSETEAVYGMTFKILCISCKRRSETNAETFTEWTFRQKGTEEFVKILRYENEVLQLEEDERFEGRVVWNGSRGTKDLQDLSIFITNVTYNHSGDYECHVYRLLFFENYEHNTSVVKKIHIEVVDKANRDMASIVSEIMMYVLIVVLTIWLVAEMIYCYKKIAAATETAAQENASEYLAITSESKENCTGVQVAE
A cell line in which human Nav1.7 and human Navβ1 subunits were stably expressed in HEK293A cells was used. Dulbecco's Modified Eagle Medium (DMEM) supplemeted with 10% fetal bovine serum, 600 μg/ml geneticin, and 2 μg/ml blasticidin S were used as culture medium under the conditions of 37° C. and 5% CO2 in T175 flasks to carry out culturing. When 60-80% confluence was reached, the cells were detached and a cell suspension of about 0.5-5.0×10^6 cells/mL was prepared. The amount of current through human Nav1.7 was recorded using a fully automatic patch clamp device QPatch16X (Sophion Biosciences) at room temperature. As the extracellular solution, the solution of 145 mM NaCl, 4 mM KCl, 1 mM MgCl2, 2 mM CaCl2, 10 mM Glucose, 10 mM 4-(2-hydroxyethyl)-1-piperazine ethanesulfonic acid (HEPES) at pH 7.4 was used. As the intracellular solution, the solution of 135 mM CsF, ⅕ mM glycol ether diaminetetraacetic acid (EGTA)/CsOH, 10 mM HEPES, 10 mM NaCl at pH 7.3 was used. The test compounds were dissolved in dimethyl sulfoxide (DMSO) and diluted with the extracellular solution to attain the DMSO concentration of 0.1% at the time of assay.
The current response was obtained at a sampling frequency of 25 kHz, and noise was removed with a 3 kHz low-pass filter. The holding potential was −100 mV. Correction of the leakage current was carried out by applying a step pulse of −120 mV before the test pulse. In order to investigate inhibitory action of the test compound, the following test pulse was given: Namely, after depolarizing pulse of −10 mV was applied for 50 milliseconds, it was fixed at −120 mV for 500 milliseconds; a potential at which about 30-40% of the channel was inactivated was maintained for 15 seconds, then fixed again at −120 mV for 100 milliseconds, and finally a −10 mV depolarization pulse was given for 50 milliseconds. Test pulses were given before and after the test compound addition.
The inhibitory activity of the test compound was determined based on the amount of inward current generated by the second depolarization pulse, and the 50% inhibitory concentration (IC50) was calculated from the concentration-response curve.
(Patch clamp records ionic current or voltage across a cell membrane.)
Take `COc1cc(C2CCn3nc(C(=O)N[C@H]4COc5ccc(C#N)cc5C4)cc3O2)ccn1` (stereo partly drawn) [Example 73]: the concentration for half-maximal inhibition (IC50) (in general, the concentration that inhibits the measured activity by half) was less than 10 µM.

On to `O=C(N[C@H]1COc2ccc(CC(F)F)cc2C1)c1cc2n(n1)CCC(COC(F)F)O2` (single isomer, unassigned) [138 (isomer A)], for which the IC50 was less than 1 µM.

`N#Cc1ccc2c(c1)C[C@@H](NC(=O)c1cc3n(n1)CCC(COC(C(F)(F)F)C(F)(F)F)O3)CO2` (stereo partly drawn) [Example 116] yielded an IC50 of less than 1 µM.

In turn, `O=C(N[C@H]1COc2ccc(CO)cc2C1)c1cc2n(n1)CCC(c1ccccc1F)O2` (stereo partly drawn) [Example 82] returned a 50% inhibitory concentration (IC50) of less than 10 µM.

On to `O=C(N[C@H]1COc2ccc(CC(F)F)cc2C1)c1cc2n(n1)CCC(COC(F)F)O2` (single isomer, unassigned) [138 (isomer B)], for which the IC50 was less than 10 µM.

The assay is the same for the next values; noted with them: human Nav1.7, automated patch clamp.
As for `O=C(N[C@H]1COc2ccc(C(F)(F)F)cc2C1F)c1cc2n(n1)CCN(CC1CCO1)C2` (stereo partly drawn) [Example 646], the IC50 was less than 1 µM.

`O=C(N[C@H]1COc2ccc(CC(F)(F)F)cc2C1)c1cc2n(n1)CCC(COCC(F)(F)F)O2` (stereo partly drawn) [Example 441] returned an IC50 of less than 1 µM.

`CCC1(O)c2cc(C(F)(F)F)ccc2OC[C@@H]1NC(=O)c1cc2n(n1)CCC(C(F)F)O2` (stereo partly drawn) [Example 544] had an IC50 of less than 10 µM.

The compound `O=C(N[C@H]1COc2ccc(C(F)(F)F)cc2C1F)c1cc2n(n1)CC(COCCOCC(F)(F)F)O2` (stereo partly drawn) [Example 676] had an IC50 of less than 1 µM.

Compound `N#CCc1cccc2c1CC(NC(=O)c1cn3c(n1)CCC(C(F)(F)F)C3)CO2` (stereo not drawn) [Example 297] yielded an IC50 of less than 10 µM.

As for `N#Cc1ccc2c(c1)C[C@@H](NC(=O)c1cc3n(n1)CCN(C1CCCC1)C3)CO2` [Example 271], the half-inhibitory concentration (IC50) was less than 10 µM.

`O=C(N[C@H]1COc2ccc(C(F)(F)F)cc2C1)c1nn2c(c1-c1ccccn1)COCCC2` [Example 528] gave an IC50 of less than 10 µM.

Regarding `O=C(N[C@H]1COc2ccc(CC(F)F)cc2C1)c1cc2n(n1)CC(CCOC(F)(F)F)O2` (single isomer, unassigned) [211 (isomer A)], the IC50 is less than 1 µM.

Compound `O=C(N[C@H]1COc2cccc(Cl)c2C1)c1cc2n(n1)CCC(COCC(F)(F)F)O2` (stereo partly drawn) [Example 574] displayed an IC50 of less than 1 µM.

Take `O=C(N[C@H]1COc2ccc(CCOC(F)F)cc2C1)c1cc2n(n1)CC(CCN1CC(F)(F)C1)O2` (single isomer, unassigned) [238 (isomer A)]: the IC50 was less than 1 µM.

Consider `O=C(N[C@H]1COc2ccc(Cl)cc2C1)c1cc2n(n1)CCC(COCC1CCOCC1)O2` (stereo partly drawn) [Example 413], for which the IC50 was less than 1 µM.

Compound `O=C(N[C@H]1COc2ccccc2C1)c1nc2n(c1-c1ccccc1)CCN(C(=O)C(F)(F)F)C2` [Example 339] yielded an IC50 of less than 10 µM.

As for `O=C(N[C@H]1COc2ccc(C(F)(F)F)cc2C1)c1cc2n(n1)CCN(CC1CCOCC1)C2` [Example 653], the IC50 was less than 10 µM.

As for `O=C(N[C@H]1COc2ccc(C3CC3)cc2C1)c1cc2n(n1)CC(COCC1CC1)O2` (stereo partly drawn) [Example 463], the IC50 was less than 1 µM.

For `O=C(NC1COc2ccc3ncccc3c2C1)c1cc2n(n1)CCC(c1ccccc1F)O2` (stereo not drawn) [Example 363], the IC50 is less than 10 µM.

The compound `O=C(N[C@H]1COc2ccc(C(F)(F)F)cc2C1)c1cc2n(n1)CCC(C1CCOCC1)O2` (stereo partly drawn) [Example 583] came in with an IC50 of less than 1 µM.

`O=C(N[C@H]1COc2ccc(COCC(F)(F)F)cc2C1)c1cc2n(n1)CC(C(F)(F)F)O2` (single isomer, unassigned) [184 (isomer B)] came in with a half-maximal inhibitory concentration (IC50) of less than 10 µM.

As to `O=C(N[C@H]1COc2ccc(CCOC(F)F)cc2C1)c1cc2n(n1)CCC(C(F)F)O2` (single isomer, unassigned) [165 (isomer A)], the IC50 is less than 1 µM.

As to `O=C(N[C@H]1COc2ccc(COCC(F)(F)F)cc2C1)c1cc2n(n1)CCC(C(F)F)O2` (single isomer, unassigned) [163 (isomer B)], the half-inhibitory concentration (IC50) is less than 10 µM.

As to `O=C(N[C@H]1COc2ccc(Cl)cc2C1)c1cc2n(n1)CCC(CF)O2` (stereo partly drawn) [Example 381], the IC50 was less than 10 µM.

Turning to `CCOCc1cccc2c1CC(NC(=O)c1cn3c(n1)CCC(C(F)(F)F)C3)CO2` (stereo not drawn) [Example 296], the IC50 was less than 10 µM.

Regarding `O=C(N[C@H]1COc2ccc(C(F)(F)F)cc2C1)c1nn2c(c1-c1ccn[nH]1)COCC2` [Example 259, (R)-3-(1H-pyrazol-5-yl)-N-(6-(trifluoromethyl)chroman-3-yl)-6,7-dihydro-4H-pyrazolo[5,1-c][1,4]oxazine-2-carboxamide], the IC50 is less than 1 µM.

Regarding `CC(C)(F)C1CCn2nc(C(=O)N[C@H]3COc4ccc(Cl)cc4C3)cc2O1` (stereo partly drawn) [Example 166], the 50% inhibitory concentration (IC50) is less than 1 µM.

In turn, `O=C(N[C@H]1COc2ccc(CC(F)F)cc2C1)c1cc2n(n1)CCC(COCC(F)(F)F)CO2` (stereo partly drawn) [Example 557] showed an IC50 of less than 1 µM.

In turn, `O=C(N[C@H]1COc2ccc(CCOC(F)(F)F)cc2C1)c1cc2n(n1)CC(CCN1CC(F)(F)C1)O2` (single isomer, unassigned) [240 (isomer B)] registered an IC50 of less than 10 µM.

`O=C(N[C@H]1COc2ccc(-c3cnccn3)cc2C1)c1cc2n(n1)CC(CCOC(F)F)O2` (single isomer, unassigned) [223 (isomer A)]: the IC50 was less than 10 µM.

On to `O=C(N[C@H]1COc2ccc(C(F)(F)F)cc2C1O)c1cc2n(n1)CC(COCCOCC(F)(F)F)O2` (stereo partly drawn) [Example 660], for which the IC50 was less than 10 µM.

Turning to `O=C(N[C@H]1COc2ccc(COCC(F)(F)F)cc2C1)c1nn2c(c1-c1ccccn1)NCCC2` [Example 525], the 50% inhibitory concentration (IC50) was less than 10 µM.

`O=C(N[C@H]1COc2ccc(C(F)(F)F)cc2C1O)c1cc2n(n1)CC(CCCOCC(F)(F)F)O2` (single isomer, unassigned) [616 (isomer B)] registered an IC50 of less than 10 µM.

`O=C(N[C@H]1COc2ccccc2C1)c1nc2n(c1CCCO)CC(C(F)(F)F)CC2` (stereo partly drawn) [Example 301] showed an IC50 of less than 10 µM.

`O=C(c1cn2c(n1)CCC(c1cccnc1C(F)(F)F)C2)N1CCCC1c1ccccc1` (stereo not drawn) [Example 315] yielded an IC50 of less than 10 µM.

In turn, `O=C(NC1COc2ccccc2C1)c1cc2n(n1)CCN(c1ccc(F)cc1)C2` (stereo not drawn) [Example 508] had a half-inhibitory concentration (IC50) of less than 1 µM.

`O=C(N[C@H]1COc2ccc(COCC(F)(F)F)cc2C1)c1cc2n(n1)CCC(COC1CCC1)O2` (stereo partly drawn) [Example 438]: the IC50 is less than 1 µM.

Take `N#Cc1ccc2c(c1)C[C@@H](NC(=O)c1cc3n(n1)CC(CCCOCC(F)F)O3)CO2` (single isomer, unassigned) [604 (isomer B)]: the IC50 was less than 10 µM.

As to `O=C(N[C@H]1COc2ccc(COCC(F)(F)F)cc2C1)c1cc2n(n1)CC(C(F)(F)F)O2` (stereo partly drawn) [Example 183], the half-inhibitory concentration (IC50) is less than 10 µM.

Take `COc1c(C(F)(F)F)ccc2c1C[C@@H](NC(=O)c1cc3n(n1)CCC(C(F)F)O3)CO2` (stereo partly drawn) [Example 551]: the IC50 was less than 10 µM.

In the case of `O=C(N[C@H]1COc2ccc(Cl)cc2C1)c1nn2c(c1-c1ccccc1)CN(CC(F)(F)F)CC2` [Example 509], the IC50 was less than 10 µM.

On to `N#Cc1ccc2c(c1)C[C@@H](NC(=O)c1cc3n(n1)CCC(C#Cc1ccccc1)O3)CO2` (stereo partly drawn) [Example 390], for which the IC50 was less than 10 µM.

`CCC1CCn2nc(C(=O)N[C@H]3COc4ccc(C(F)(F)F)nc4C3)cc2O1` (stereo partly drawn) [Example 549] showed an IC50 of less than 10 µM.

Regarding `COC1c2cc(C(F)(F)F)ccc2OC[C@@H]1NC(=O)c1cc2n(n1)CCC(COCC(F)(F)F)O2` (stereo partly drawn) [Example 570], the IC50 was less than 1 µM.
